Experimental data reported in article PMC11054433, “Nature-Inspired 1-Phenylpyrrolo[2,1-a]isoquinoline Scaffold for Novel Antiproliferative Agents Circumventing P-Glycoprotein-Dependent Multidrug Resistance” (Pharmaceuticals, 2024).
Where “and” joins values, the source holds several entries; their conditions need not be identical. Equal entries are not always repeated. Where two headings read alike, the source gives them in different places.

Experiments:
[1] = tested on: HCT116 (colon cancer) cells; assay: MTT antiproliferative (cytotoxicity) assay, HCT116 cells; format: cell-based, Human; conditions: Homo sapiens, HCT-116, 72 h, mean (SD), triplicate, n.a. = not active at 100 μM, >100 = less than 60% inhibition at 100 μM
Procedure: (§1) The newly synthesized 1-Ph-DHPIQs, along with the previously reported derivatives 4a, 4c, 6a and 6c, with camptothecin and doxorubicin as positive controls, were tested at the maximum concentration of 100 μM for their antiproliferative activity, using an MTT assay on RD, HCT116, HeLa and A549 cancer cell lines. Compounds showing more than 50% inhibition were tested at lower scalar concentrations, and IC50 values were calculated by interpolation of the dose-response curves (Table 1). […]
(§2) The antiproliferative activity of the newly synthesized compounds, along with some previously reported analogs, and camptothecin and doxorubicin as positive controls was determined by the MTT (3-(4,5-dimethylthiazol-2-yl)-2,5-diphenyltetrazolium bromide) assay. The cells were seeded at a concentration of 1 × 10 ^4 cells/200 μL in a 96-well plate and cultured at 37 °C in a humidified atmosphere with 5% CO2. After 24 h of incubation, scalar concentrations of each test compound (100 to 1.56 μmol·L^−1) were added to the cancer cell culture and the cells were then cultured under the same conditions for 72 hr. Each concentration of the test compound was assayed in triplicate. […] Wells with the 0.1% v/v DMSO were used as controls. After incubation, 20 μL of MTT (5 mg·mL^−1) was added to each well and the plates were incubated for a further 2 h. Next, media were removed from the plates, and 100 μL of DMSO was added to each well to dissolve the formed formazan crystals. Using a flatbed analyzer (Victor^3, PerkinElmer, Waltham, MA, USA), the optical density was determined at 530 nm, minus the measured background absorbance at 620 nm. The concentration value, which causes 50% inhibition of cell population growth (IC50), was determined from the dose-dependent curves using the OriginPro 9.0 software.

[2] = tested on: A549 (lung adenocarcinoma) cells; assay: MTT antiproliferative (cytotoxicity) assay, A549 cells; format: cell-based, Human; conditions: Homo sapiens, A549, 72 h, mean (SD), triplicate, n.a. = not active at 100 μM, >100 = less than 60% inhibition at 100 μM
Procedure: The antiproliferative activity of the newly synthesized compounds, along with some previously reported analogs, and camptothecin and doxorubicin as positive controls was determined by the MTT (3-(4,5-dimethylthiazol-2-yl)-2,5-diphenyltetrazolium bromide) assay. […] Each concentration of the test compound was assayed in triplicate. […] Wells with the 0.1% v/v DMSO were used as controls. After incubation, 20 μL of MTT (5 mg·mL^−1) was added to each well and the plates were incubated for a further 2 h. Next, media were removed from the plates, and 100 μL of DMSO was added to each well to dissolve the formed formazan crystals. Using a flatbed analyzer (Victor^3, PerkinElmer, Waltham, MA, USA), the optical density was determined at 530 nm, minus the measured background absorbance at 620 nm.

[3] = tested on: RD (rhabdomyosarcoma) cells; assay: MTT antiproliferative (cytotoxicity) assay, RD cells; format: cell-based, Human; conditions: Homo sapiens, Rhabdomyosarcoma cell, 72 h, mean (SD), triplicate, n.a. = not active at 100 μM, >100 = less than 60% inhibition at 100 μM
Procedure: as §1, §2

[4] = tested on: HeLa (adenocarcinoma of the cervix uterus) cells; assay: MTT antiproliferative (cytotoxicity) assay, HeLa cells; format: cell-based, Human; conditions: Homo sapiens, HeLa, 72 h, mean (SD), triplicate, n.a. = not active at 100 μM, >100 = less than 60% inhibition at 100 μM
Procedure: as §1, §2

[5] = Kinetic solubility in PBS by RP-HPLC; format: physicochemical; conditions: phosphate buffered saline, 25 °C, kinetic from dmso stock
Procedure: Sample solution at 200 μM in PBS (50 mM, pH 7.4, KCl 0.15 M) from a 10 mM stock solution in DMSO was incubated at room temperature (25 ± 1 °C) for 2 h, following shaking of the suspension on an orbital shaker at 250 rpm, and then separated by […]. Immediately after the filtration step, 100 µL of filtrate was transferred into 100 µL of 1:1 (v/v) mixture of DMSO and PBS (50 mM, pH 7.4, KCl 0.15 M), to avoid precipitation from the saturated solution and analyzed by HPLC. The peak area was plotted against a calibration curve of the tested compound in MeOH [21]. Analytical conditions were as follows. Mobile Phase: MeOH/ammonium formate 20 mM pH 4.7 (70:30, 75:25); MeOH 0.1% TFA/H2O 0.1% TFA (70:30, 60:40); stationary phase: Phenomenex, Kinetex 5 μ, C18, 100 Å (150 × 4.6 mm); flux: 1 mL/min; injection: 10 μL, 265, 290, 320 nm wavelength. HPLC analyses were performed on an Agilent HPLC 1260 Infinity Series Integrated System (Agilent Technologies, Milan, Italy).

[6] = Lipophilicity by RP-HPLC (polycratic capacity factor); format: physicochemical; conditions: capacity factor extrapolated to 100% aqueous mobile phase, aqueous component pH 4.7
Procedure: To quantitate the effect of hydrophobicity on the biological activity of the examined compounds, a relative lipophilicity scale was determined by RP-HPLC [20]. The polycratic capacity factor (log k′w) for each compound in Table 2 was experimentally determined (details in the experimental section) and compared with 1-octanol–water partition coefficient calculated (Clog P) with ACDLabs software (release 10.0; Advanced Chemistry Development, Inc., Toronto, ON, Canada). Log k′w values are quite well correlated with Clog Ps for the whole series (r^2 = 0.791). However, omitting from the regression the two Mannich bases 8b and 8c, which, due to their basicity (pKas about 6.9, estimated by ACDLabs software), should be predominantly in the protonated forms at pH 4.7 (i.e., the pH of the aqueous component of the mobile phase in RP-HPLC), the correlation slightly improves (r^2 = 0.859), providing a linear equation with a slope equal to +0.8 and an intercept of about −0.1.
The lipophilicity parameters were determined by an RP-HPLC technique. Methanol solution of DHPIQ derivatives (1 mg/mL) were analyzed by an Agilent 1260 infinite HPLC system (Agilent Technologies, Milan, Italy) equipped with a diode array detector (DAD), and a Phenomenex, Kinetex 5 μ, C18, 100 Å (150 × 4.6 mm), and eluted with different percentage of mobile phase composition (0.05 increments of MeOH volume fractions in 20 mM ammonium formate buffer at pH 4.7 or water 0.1% v/v TFA, with φ ranging between 0.85 and 0.30). The chromatographic measurements were carried out at 25 ± 1 °C at a flow rate of 1 mL·min^−1 and at 265, 290, 320 nm wavelengths. The log of capacity factors (log k′ = log (tR − t0)/t0) of each compound at different mobile phase compositions was calculated; tR represents the retention time of the solute and t0 is the column dead time, measured as the elution time of a KNO3 solution in MeOH. For each compound, the log k′ values increased linearly with decreasing MeOH volume fraction. The logarithms of the capacity factor extrapolated to 100% aqueous mobile phase (log k′w) were calculated from the linear regressions on at least five data points (r^2 > 0.9984).

[7] = target: T1, human serum albumin (HSA) (Homo sapiens, UniProt P02768); assay: Binding affinity to immobilized HSA by surface plasmon resonance (SPR)
T1 sequence (P02768 25-609): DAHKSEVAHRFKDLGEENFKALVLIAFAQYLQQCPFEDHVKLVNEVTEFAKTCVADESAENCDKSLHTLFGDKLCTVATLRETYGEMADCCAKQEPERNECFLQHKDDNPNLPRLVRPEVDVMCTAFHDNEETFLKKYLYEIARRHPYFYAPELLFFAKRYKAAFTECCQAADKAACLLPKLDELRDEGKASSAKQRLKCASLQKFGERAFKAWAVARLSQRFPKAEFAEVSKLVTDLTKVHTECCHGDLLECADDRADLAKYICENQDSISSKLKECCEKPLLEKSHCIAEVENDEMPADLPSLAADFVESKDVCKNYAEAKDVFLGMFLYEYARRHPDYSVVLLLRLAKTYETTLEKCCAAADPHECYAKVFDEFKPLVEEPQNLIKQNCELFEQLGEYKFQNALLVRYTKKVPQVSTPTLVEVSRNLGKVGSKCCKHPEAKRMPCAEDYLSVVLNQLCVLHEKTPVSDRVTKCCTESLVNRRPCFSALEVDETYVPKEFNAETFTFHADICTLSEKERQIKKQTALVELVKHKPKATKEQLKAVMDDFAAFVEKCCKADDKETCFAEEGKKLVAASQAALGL
Procedure: (§3) By plotting the response at equilibrium, the dissociation constant (KD) value was determined for each test compound.
(§4) Fatty acid-free HSA (A3782 from Merck, KGaA Sigma-Aldrich, Darmstadt, Germany) was applied to functionalize the surface of a COOH V sensor chip (Pall FortèBio, Fremont Boulevard, CA, USA), by using amine coupling (EDC/NHS). HSA aqueous stock solution was diluted at the final concentration of 50 μg·mL^−1 in 10 mM sodium acetate buffer (pH 5.0), and immobilization in peripheral flow cells 1 and 3 (unmodified dextran surface in middle flow cell 2 used as a reference) at a final apparent level of about 5000 RU was achieved by applying the following protocol: injection of EDC/NHS (freshly mixed 0.4 M EDC and 0.1 M NHS) 1:1 v/v at a flow of 25 μL·min^−1 for 4 min; injection of HSA solution at a flow of 25 μL·min^−1 for 8 min; capping on unreacted activated carboxyl groups by injection of 1 M ethanolamine solution (pH 9) at a flow of 25 μL·min^−1 for 8 min. The functionalized surface was then treated with repeated injection of 4 M NaCl, as a regenerating reagent, and conditioned overnight prior to use with pH 7.4 PBS (10 mM NaH2PO4 and 150 mM NaCl) as a running buffer. Each cycle (without the need of regeneration) for binding assay to HSA was carried out in PBS/4% v/v DMSO and consisted of a run buffer injection (60 s), injection of analyte single concentration for 120 s (ranging from 1 to 200 μM) at a flow 20 μL·min^−1, and a dissociation phase for 150 s (flow 20 μL·min^−1). Each measurement was performed at least in triplicate and analyzed by using QDAT software, vers 2.2.0.7 (non-linear regression analysis of 1:1 stoichiometric reversible binding model), and double referencing.

[8] = target: multidrug-resistance-associated protein-1 (MRP1) (Homo sapiens, UniProt P33527); assay: Calcein-AM transport inhibition in MDCK-MRP1 cells overexpressing MRP1
multidrug-resistance-associated protein-1 (MRP1), sequence (P33527 whole entry): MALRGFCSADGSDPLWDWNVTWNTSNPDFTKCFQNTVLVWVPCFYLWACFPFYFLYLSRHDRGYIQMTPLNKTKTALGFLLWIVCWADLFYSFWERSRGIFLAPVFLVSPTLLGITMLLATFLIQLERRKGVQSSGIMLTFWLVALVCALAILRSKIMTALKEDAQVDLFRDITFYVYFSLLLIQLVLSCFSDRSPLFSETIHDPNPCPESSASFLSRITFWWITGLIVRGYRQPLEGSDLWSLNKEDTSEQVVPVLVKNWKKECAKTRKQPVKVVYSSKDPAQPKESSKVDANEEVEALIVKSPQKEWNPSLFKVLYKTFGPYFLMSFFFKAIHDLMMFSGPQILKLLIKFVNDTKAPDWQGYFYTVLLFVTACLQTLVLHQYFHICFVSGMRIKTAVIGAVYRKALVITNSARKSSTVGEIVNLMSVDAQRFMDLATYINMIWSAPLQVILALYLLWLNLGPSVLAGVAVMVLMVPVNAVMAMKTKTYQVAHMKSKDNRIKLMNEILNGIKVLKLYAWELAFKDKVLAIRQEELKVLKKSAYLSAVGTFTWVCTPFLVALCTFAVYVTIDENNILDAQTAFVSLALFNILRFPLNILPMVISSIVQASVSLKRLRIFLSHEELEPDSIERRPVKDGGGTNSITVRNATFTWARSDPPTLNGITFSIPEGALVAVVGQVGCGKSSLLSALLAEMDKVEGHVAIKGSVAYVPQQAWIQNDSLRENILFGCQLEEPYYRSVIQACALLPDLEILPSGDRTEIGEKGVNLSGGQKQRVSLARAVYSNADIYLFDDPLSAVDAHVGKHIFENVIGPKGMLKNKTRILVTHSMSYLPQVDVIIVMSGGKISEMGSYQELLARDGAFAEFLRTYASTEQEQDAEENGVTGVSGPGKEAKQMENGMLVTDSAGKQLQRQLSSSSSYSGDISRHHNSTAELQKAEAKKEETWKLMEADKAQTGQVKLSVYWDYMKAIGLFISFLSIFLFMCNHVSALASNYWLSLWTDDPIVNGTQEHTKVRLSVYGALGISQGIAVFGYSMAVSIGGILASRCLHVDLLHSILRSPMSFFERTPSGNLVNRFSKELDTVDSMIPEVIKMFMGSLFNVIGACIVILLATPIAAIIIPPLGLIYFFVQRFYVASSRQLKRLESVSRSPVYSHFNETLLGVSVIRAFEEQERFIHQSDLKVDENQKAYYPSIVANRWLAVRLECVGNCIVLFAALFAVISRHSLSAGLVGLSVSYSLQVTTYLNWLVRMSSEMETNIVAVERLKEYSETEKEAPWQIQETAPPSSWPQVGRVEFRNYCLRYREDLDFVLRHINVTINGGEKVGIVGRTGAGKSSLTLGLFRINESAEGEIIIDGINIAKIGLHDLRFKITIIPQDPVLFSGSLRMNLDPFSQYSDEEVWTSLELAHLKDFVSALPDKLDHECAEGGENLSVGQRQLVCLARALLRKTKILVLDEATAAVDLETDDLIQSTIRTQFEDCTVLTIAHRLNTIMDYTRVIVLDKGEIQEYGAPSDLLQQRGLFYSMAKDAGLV
Procedure: (§5) The P-gp inhibitory potency of eight DHPIQs was evaluated by measuring the transport inhibition of calcein-AM, a profluorescent P-gp substrate, in the MDCK-MDR1 cell line overexpressing P-gp. Moreover, to evaluate the MRP1 inhibitor activity, the same compounds were screened in MDCK-MRP1 cells overexpressing MRP1.
(§6) According to previously described assays [9], MDCK-MDR1 and MDCK-MRP1 cell lines (50,000 cells per well) were seeded into a black CulturePlate 96-well plate with 100 μL medium and allowed to become confluent overnight. […] Saline buffer (100 μL) was added to each well, and the plate was read by a PerkinElmer Victor3 spectrofluorimeter at excitation and emission wavelengths of 485 nm and 535 nm, respectively. In these experimental conditions, calcein cell accumulation in the absence and in the presence of the test compound was evaluated, and the fluorescence basal level was estimated by untreated cells. In the treated wells, the increase of fluorescence with respect to basal level was measured. IC50 values were determined by interpolating the curve of fluorescence increase percentage versus log [conc.].

P-glycoprotein (P-gp) = P-glycoprotein (P-gp) (Homo sapiens, UniProt P08183); assay: Calcein-AM transport inhibition in MDCK-MDR1 cells overexpressing P-gp; conditions: for IC50: calcein-AM, mean (SD), at least two independent experiments in triplicate; for P-gp/MRP1 selectivity (toward P-gp): ratio of MRP1 and P-gp inhibition potency
P-glycoprotein (P-gp), sequence (P08183 whole entry): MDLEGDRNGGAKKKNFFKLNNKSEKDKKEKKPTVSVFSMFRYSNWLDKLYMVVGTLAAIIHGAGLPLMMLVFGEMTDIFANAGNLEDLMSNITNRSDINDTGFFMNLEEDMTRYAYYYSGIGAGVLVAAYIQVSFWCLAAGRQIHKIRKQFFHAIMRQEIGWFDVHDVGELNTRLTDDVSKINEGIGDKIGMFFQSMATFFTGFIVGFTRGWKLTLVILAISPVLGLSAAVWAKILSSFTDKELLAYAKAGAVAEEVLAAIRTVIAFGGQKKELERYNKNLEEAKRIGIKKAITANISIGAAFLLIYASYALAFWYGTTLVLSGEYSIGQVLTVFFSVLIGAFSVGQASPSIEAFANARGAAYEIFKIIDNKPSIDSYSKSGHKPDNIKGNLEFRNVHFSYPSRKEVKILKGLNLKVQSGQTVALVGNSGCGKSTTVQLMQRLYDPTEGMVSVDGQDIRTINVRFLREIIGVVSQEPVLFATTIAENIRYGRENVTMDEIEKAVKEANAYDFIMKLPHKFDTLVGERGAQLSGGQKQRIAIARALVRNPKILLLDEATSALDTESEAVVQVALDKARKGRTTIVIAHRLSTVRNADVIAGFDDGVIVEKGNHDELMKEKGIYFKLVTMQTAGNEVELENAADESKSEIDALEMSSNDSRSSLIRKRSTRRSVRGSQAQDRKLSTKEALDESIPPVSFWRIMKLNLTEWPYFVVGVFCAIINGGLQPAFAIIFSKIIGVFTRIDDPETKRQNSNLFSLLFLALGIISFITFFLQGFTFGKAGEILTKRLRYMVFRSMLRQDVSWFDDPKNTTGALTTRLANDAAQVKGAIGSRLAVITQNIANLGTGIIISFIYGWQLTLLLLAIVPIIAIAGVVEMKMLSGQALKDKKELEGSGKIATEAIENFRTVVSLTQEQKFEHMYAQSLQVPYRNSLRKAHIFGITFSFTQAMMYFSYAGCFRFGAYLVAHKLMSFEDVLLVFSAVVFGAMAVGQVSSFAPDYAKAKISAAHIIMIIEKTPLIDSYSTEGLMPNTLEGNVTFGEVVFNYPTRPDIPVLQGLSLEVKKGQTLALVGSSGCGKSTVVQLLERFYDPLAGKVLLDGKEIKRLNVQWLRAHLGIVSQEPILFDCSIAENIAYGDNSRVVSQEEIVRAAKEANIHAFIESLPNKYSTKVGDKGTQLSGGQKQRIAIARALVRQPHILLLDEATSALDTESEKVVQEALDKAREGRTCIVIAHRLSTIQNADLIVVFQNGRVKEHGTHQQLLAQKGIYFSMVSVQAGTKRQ
Procedure: as §5, §6

[9] = Hydrolytic stability monitored by RP-HPLC; format: physicochemical; conditions: 0.15 M KCl; for Hydrolytic stability at pH 2: 0.01 M HClaq, pH 2, 25 °C; for Hydrolytic stability at pH 7.4: 50 mM PBS, pH 7.4, 25 °C
From the text: In particular, the transformation of the DHPIQ-2-aldehyde via Mannich reaction (8b,c) opens the road to future developments of new water-soluble antiproliferative DHPIQ derivatives endowed with the ability to inhibit P-gp and reverse MDR.

[10] = target: T1, human serum albumin (HSA); conditions: 10 μM, pH 7.4
Procedure: as §3, §4

[11] = aqueous buffer, PBS (50 mM, pH 7.4, 0.15 M KCl) at 25 ± 1 °C, read-out: S (solubility)

| SMILES | IC50 [1] | IC50 [2] | IC50 [3] | IC50 [4] | solubility at 2 h [5, 11] | Log k′w [6] | Kd [7] | IC50 [8] | IC50 (P-glycoprotein (P-gp); P-gp, IC50, MDCK-MDR1 cells) | melting point | P-gp/MRP1 selectivity (toward P-gp) (P-glycoprotein (P-gp)) | Hydrolytic stability at pH 2 [9] | Hydrolytic stability at pH 7.4 [9] | solubility at 2 h ([5]; pH 7.4, aqueous buffer, ‘practically insoluble’ threshold of US and European Pharmacopoeia, read-out: Solubility category in buffered water solution at neutral pH) | Predicted fraction bound to HSA [10] | IC50 (P-glycoprotein (P-gp); read-out: P-gp, IC50, MDCK-MDR1 cells) |
| --- | --- | --- | --- | --- | --- | --- | --- | --- | --- | --- | --- | --- | --- | --- | --- | --- |
| CC[C@@]1(O)C(=O)OCc2c1cc1n(c2=O)Cc2cc3ccccc3nc2-1 [Camptothecin, reference compound] | 12.3 µM | 3.32 µM | 16 µM | 0.33 µM | – | – | – | – | – | – | – | – | – | – | – | – |
| COc1ccc(-c2c(C=O)cn3c2-c2cc(OC)c(OC)cc2CC3)cc1 [Compound 4b] | > 100 µM | > 100 µM | 95.2 µM | > 100 µM | 19.8 µM | 3.39 | 1.95 µM | 6.42 µM | 4.48 µM | – | – | – | – | – | – | – |
| COc1cc2c(cc1OC)-c1c(-c3ccc(Cl)cc3)c(C(=O)O)cn1CC2 [Compound 5a, 1-(4-Chlorophenyl)-8,9-dimethoxy-5,6-dihydropyrrolo[2,1-a]isoquinoline-2-carboxylic acid] | > 100 µM | > 100 µM | > 100 µM | > 100 µM | – | – | – | – | – | 210 to 215 °C | – | – | – | – | – | – |
| CCOc1ccc(-c2c(C(=O)O)cn3c2-c2cc(OCC)c(OCC)cc2CC3)cc1OCC [Compound 5c, 1-(3,4-Diethoxyphenyl)-8,9-diethoxy-5,6-dihydropyrrolo[2,1-a]isoquinoline-2-carboxylic acid] | – | – | – | – | 14.6 µM | – | 5.2 µM | > 100 µM | < 0.5 µM and 0.35 µM | – | more than two orders of magnitude | – | – | – | – | – |
| COc1cc2c(cc1OC)-c1c(-c3ccc(Cl)cc3)c(C#N)cn1CC2 [Compound 6a] | > 100 µM | > 100 µM | > 100 µM | > 100 µM | 1.42 µM | 4.42 | 4.6 µM | 16.6 µM | 5.89 µM | – | – | – | – | – | – | – |
| CCOc1ccc(-c2c(C#N)cn3c2-c2cc(OCC)c(OCC)cc2CC3)cc1OCC [Compound 6c] | > 100 µM | > 100 µM | > 100 µM | > 100 µM | 1.06 µM | 5.09 | 1.8 µM | > 100 µM | < 0.5 µM and 0.39 µM | – | more than two orders of magnitude | – | – | – | – | – |
| CCOc1ccc(-c2c(C#N)c(C)n3c2-c2cc(OCC)c(OCC)cc2CC3)cc1OCC [Compound 6d, 1-(3,4-Diethoxyphenyl)-8,9-diethoxy-3-methyl-5,6-dihydropyrrolo[2,1-a]isoquinoline-2-carbonitrile] | > 100 µM | > 100 µM | > 100 µM | > 100 µM | – | – | – | – | – | – | – | – | – | – | – | – |
| CCOc1ccc(-c2c(C#N)c(-c3ccccc3)n3c2-c2cc(OCC)c(OCC)cc2CC3)cc1OCC [Compound 6e, 1-(3,4-Diethoxyphenyl)-8,9-diethoxy-3-phenyl-5,6-dihydropyrrolo [2,1-a]isoquinoline-2-carbonitrile] | – | – | > 100 µM | – | – | – | – | – | – | 271 to 273 °C | – | – | – | – | – | – |
| CCOC(=O)c1cn2c(c1-c1ccc(OCC)c(OCC)c1)-c1cc(OCC)c(OCC)cc1CC2 [Compound 7c, Ethyl 1-(3,4-Diethoxyphenyl)-8,9-diethoxy-5,6-dihydro pyrrolo[2,1-a]isoquinoline-2-carboxylate] | – | – | – | – | 41.7 µM | 5.49 | 12.1 µM | 3.23 µM | < 0.5 µM and 0.32 µM | – | – | stable over 4 h | stable over 4 h | – | – | – |
| COc1ccc(-c2c(CN3CCOCC3)cn3c2-c2cc(OC)c(OC)cc2CC3)cc1 [Compound 8b, 8,9-Dimethoxy-1-(4-methoxyphenyl)-2-(morpholin-4-ylmethyl)-5,6-dihydropyrrolo[2,1-a]isoquinoline] | 56.4 µM | 66 µM | 37.7 µM | 65.4 µM | 112 µM | 3.86 | 19.3 µM | 1.8 µM | < 0.5 µM and 0.36 µM | – | – | stable over 4 h | stable over 4 h | < 100 µg/mL | less than 40% | – |
| COc1cccc2c1C(=O)c1c(O)c3c(c(O)c1C2=O)C[C@@](O)(C(=O)CO)C[C@@H]3O[C@H]1C[C@H](N)[C@H](O)[C@H](C)O1 [Doxorubicin, reference compound] | 0.14 µM | 0.38 µM | 0.29 µM | 0.89 µM | – | – | – | – | – | – | – | – | – | – | – | – |
| COc1cc2c(cc1OC)CN(CCC=C1CCCc3c(OC)cccc31)CC2 [MC18, reference compound] | – | – | – | – | – | – | – | – | – | – | – | – | – | – | – | 1.2 µM |
